These results are taken from patent publication US8426447B2, “Spiro-tricyclic ring compounds as beta-secretase modulators and methods of use” (Amgen Inc., priority 2008, dated 2013).

Bounds are passed on as bounds.

Assay [1] addresses T1, BACE1 (Homo sapiens, UniProt P56817). Kind of assay: In Vitro Enzymatic BACE FRET (Fluorescence Resonance Energy Transfer) Assay. In kind it is biochemical. Conditions: read-out: BACE1 FRET assay. An outline of the steps:
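Buffer 0.05 M acetate pH 4.2 with 10% DMSO final and 100 uM genapol; reaction started with 50 nM FRET peptide substrate (fluorophore/quencher flanking BACE cleavage site), incubated one hour. Stopped with Tris buffer raising pH to neutrality, then fluorescence read.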

For assay [2], the target named is T1, BACE1. Kind of assay: In Vitro BACE Cell-based Assay (HEK cell assay): Aβ40 in conditioned medium of cells stably expressing Amyloid Precursor Protein, sandwich ELISA. Conditions: read-out: HEK cell assay. Put shortly:
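First, APP-stable cells grow 24 h at 37° C., 5% CO2. Next, test compounds are added for 24 h (10 doses, 0.1% DMSO). Finally, medium Aβ40 is determined by pAb40/6E10 sandwich ELISA with Europium TRF, and IC50 is calculated.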

T1 sequence (P56817 46-501, species assumed): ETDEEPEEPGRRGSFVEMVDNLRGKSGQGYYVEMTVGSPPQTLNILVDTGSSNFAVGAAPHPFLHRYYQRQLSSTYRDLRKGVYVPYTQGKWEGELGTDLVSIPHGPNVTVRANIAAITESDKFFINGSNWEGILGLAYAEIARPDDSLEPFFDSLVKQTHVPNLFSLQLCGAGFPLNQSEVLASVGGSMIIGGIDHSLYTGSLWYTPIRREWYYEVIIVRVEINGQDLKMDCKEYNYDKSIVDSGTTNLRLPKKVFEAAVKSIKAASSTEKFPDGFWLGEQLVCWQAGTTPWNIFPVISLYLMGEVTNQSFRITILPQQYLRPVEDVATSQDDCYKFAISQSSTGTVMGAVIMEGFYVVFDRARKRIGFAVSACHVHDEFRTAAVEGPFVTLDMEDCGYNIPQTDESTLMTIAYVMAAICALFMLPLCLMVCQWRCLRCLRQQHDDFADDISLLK

Regarding `C[C@@H]1OC(N)=N[C@@]12c1cc(OCC(C)(C)C)ccc1Oc1ccc(-c3cncnc3)cc12` [126b], the IC50 on BACE1 [1] (Table III, IC50's in uM ranges) was under 0.1 µM; on BACE1 [2] (Table III, IC50's in uM ranges) it was 0.1 to 1 µM.

Consider `NC1=N[C@]2(CO1)c1cc(OCC3CCOCC3)ccc1Oc1ccc(-c3cncnc3)cc12` [compound 175], for which the IC50 on BACE1 [1] (Table III, IC50's in uM ranges) is under 0.1 µM; at BACE1 [2] (Table III, IC50's in uM ranges) it was under 0.1 µM.

Take `NC1=N[C@@]2(CO1)c1cc(-c3cncnc3)ccc1Oc1cc(OCC(F)(F)F)c(F)cc12` [compound 987]: the IC50 on BACE1 [1] and at BACE1 [2] was over 5 µM each time.

As for `Cc1cc(-c2ccc3c(n2)[C@]2(COC(N)=N2)c2cc(-c4cccnc4F)ccc2O3)ccn1` [compound 401], the IC50 at BACE1 [1] (in vitro BACE FRET enzyme assay, IC50 class symbols) was 0.1 to 1 µM; on BACE1 [2] (HEK cell-based assay, Aβ40 in conditioned medium, IC50 class symbols), under 0.1 µM.

Take `NC1=N[C@@]2(CO1)c1cc(-c3ccccc3F)ccc1Oc1cnc(C3=CCOCC3)cc12` [compound 426]: the IC50 was under 0.1 µM at BACE1 [1] and 0.1 to 1 µM on BACE1 [2] (HEK cells).

In the case of `COc1ccc2c(c1)C1(COC(N)=N1)c1cc(-c3cccc(OC)c3F)ccc1O2` (stereo not drawn) [Example 17, 2′-(2-fluoro-3-methoxyphenyl)-7′-methoxyspiro[1,3-oxazole-4,9′-xanthen]-2-amine], the IC50 on BACE1 [1] (Table 1) lay within 1 to 5 µM; on BACE1 [2] (Table 1, Aβ40, 24 h incubation), 1 to 5 µM.

Turning to `NC1=N[C@@]2(CO1)c1cc(-c3cccnc3)ccc1Oc1ccc(Cl)nc12` [compound 988], the IC50 at BACE1 [1] and at BACE1 [2] was 1 to 5 µM in each case.

For the compound `NC1=N[C@@]2(CO1)c1cc(Br)ccc1Oc1ccc(C#CC3(O)COC3)cc12` [compound 682], the IC50 at BACE1 [1] was 1 to 5 µM; at BACE1 [2], over 5 µM.

Consider `N#Cc1ccc(-c2ccc3c(c2)[C@@]2(COC(N)=N2)c2cc(-c4cccnc4)ccc2O3)cn1` [compound 683], for which the IC50 at BACE1 [1] and on BACE1 [2] was under 0.1 µM throughout.

Consider `CC(C)(C)COc1ccc2c(c1)[C@]1(COC(N)=N1)c1cc(-c3cccs3)ccc1O2` [compound 834], for which the IC50 was under 0.1 µM on BACE1 [1] (Table IV, class symbols) and 1 to 5 µM at BACE1 [2] (Table IV, class symbols).

Turning to `NC1=N[C@]2(CO1)c1cc(-c3cccnc3)ccc1Oc1ncc(-c3cccnc3)cc12` [compound 157], the IC50 on BACE1 [1] (Table III, IC50's in uM ranges) is under 0.1 µM; at BACE1 [2] (Table III, IC50's in uM ranges) it was under 0.1 µM.

As to `NC1=N[C@@]2(CO1)c1cc(-c3cccnc3)ccc1Oc1ncc(C3=CCOCC3)cc12` [compound 664], the IC50 at BACE1 [1] and at BACE1 [2] was under 0.1 µM in each case.

Regarding `NC1=N[C@]2(CO1)c1cc(/C=C/C(=O)O)ccc1Oc1ccc(-c3cncnc3)cc12` [compound 948], the figures for the IC50 at BACE1 [1] and at BACE1 [2] were 0.1 to 1 µM and over 5 µM, respectively.

`COc1cc(F)c2c(c1)[C@]1(COC(N)=N1)c1cc(-c3cncnc3)cnc1O2` [compound 584]: the IC50 on BACE1 [1] (Table IV, class symbols) was 1 to 5 µM; at BACE1 [2] (Table IV, class symbols) it was over 5 µM.

As for `NC1=N[C@]2(CO1)c1cc(Br)ccc1Oc1ccc(Cl)nc12` [compound 856], the IC50 on BACE1 [1] (Table IV, class symbols) is over 5 µM; at BACE1 [2] (Table IV, class symbols), over 5 µM.

Turning to `NC1=N[C@@]2(CO1)c1cc(-c3cccnc3)ccc1Oc1ncccc12` [compound 594], the IC50 on BACE1 [1] (Table IV, class symbols) was over 5 µM; at BACE1 [2] (Table IV, class symbols) it was over 5 µM.

For `CC(C)(C)COc1ccc2c(n1)[C@@]1(COC(N)=N1)c1cc(-c3cncnc3)ccc1O2` [compound 732], the IC50 at BACE1 [1] and at BACE1 [2] was 1 to 5 µM in each case.

Consider `CC(C)(C)OC(=O)/C=C/c1ccc2c(c1)[C@]1(COC(N)=N1)c1cc(-c3cncnc3)ccc1O2` [compound 994], for which the IC50 was in the range of 0.1 to 1 µM on BACE1 [1] and 1 to 5 µM on BACE1 [2].

As to `CC(C)(O)C#Cc1ccc2c(c1)C1(COC(N)=N1)c1cc(C#CC(C)(C)O)cnc1O2` (stereo not drawn) [Example 114, 4,4′-(−2′-aminospiro[chromeno[2,3-b]pyridine-5,4′-[1,3]oxazole]-3,7-diyl)bis(2-methyl-3-butyn-2-ol)], the IC50 at BACE1 [1] (Table III, IC50's in uM ranges) fell in the range of 0.1 to 1 µM; on BACE1 [2] (Table III, IC50's in uM ranges), 0.1 to 1 µM.

For the compound `CCCOc1cc2c(cc1F)Oc1ccc(-c3ccc(F)nc3)cc1[C@]21COC(N)=N1` [compound 921], the IC50 at BACE1 [1] (Table IV, class symbols) lay within 0.1 to 1 µM; at BACE1 [2] (Table IV, class symbols), 1 to 5 µM.

As to `CC(C)(O)COc1ccc2c(c1)[C@]1(COC(N)=N1)c1cc(Br)ccc1O2` [compound 210], the IC50 at BACE1 [1] (Table III, IC50's in uM ranges) was in the range of 1 to 5 µM; on BACE1 [2] (Table III, IC50's in uM ranges) it was 1 to 5 µM.
